According to US11266626B2, “Reduction of ER-MAM-localized APP-C99 and methods of treating alzheimer's disease” (THE TRUSTEES OF COLUMBIA UNIVERSITY IN THE CITY OF NEW YORK, priority 2015, dated 2022):
“Also recorded” adds a separate entry of the source.

Assays:
Format in all cases: cell-based, mouse
APP-DKO cells = assay: Seahorse analysis of mitochondrial respiration (OCR); details: APP-DKO cells expressing C99; DAPT added
Method: Respirometry of cultured cells was performed using the XF24e Extracellular Flux Analyzer (Seahorse Bioscience). Oxygen consumption was measured in basal conditions (Seahorse media with 25 mM glucose and 2 mM pyruvate) and after the sequential addition of 1 μM oligomycin (Complex V inhibitor), 0.75 μM FCCP (uncoupler) and 1 μM rotenone/1 μM antimycin A (Complex I and Complex III inhibitors respectively).
(§1) To analyze the effect of Aβ addition, a mix of Aβ40/Aβ42 at a ratio 10:1 was added to the cultured cells to a final concentration of 6000 pg/ml for 24 h. For Aβ42 oligomer formation, 5 mM of Aβ42 in DMSO was diluted to 100 μM in ice-cold media, vortexed for 30 seconds, and incubated at 4° C. for 24 h. Aβ42 Oligomers were added to the cultured cells to a final concentration of 5 or 10 μM for 24 h.
Respirometry of cultured cells was performed using the XF24e Extracellular Flux Analyzer (Seahorse Bioscience). Oxygen consumption was measured in basal conditions (Seahorse media with 25 mM glucose and 2 mM pyruvate) and after the sequential addition of 1 μM oligomycin (complex V inhibitor), 0.75 μM FCCP (uncoupler), and 1 μM rotenone/1 μM antimycin A (complex I and complex III inhibitors, respectively). All results were averages of five or more biological replicates. Every biological replicate consisted of three technical replicates. For every technical replicate, we plated equal number of cells (25,000 cell/well when MEFs were used, and 50,000 cells/well when human primary fibroblasts were analyzed). The number of cells was also counted after every respirometry assay to correct for cell death. All oxygen consumption (OCR) data were normalized by the number of viable cells or by protein quantity when isolated mitochondria were used.
as §1, with “6,000” for “6000”, “s,” for “seconds,”, “Aβ42 Oligomers were added to the cultured cells to a final concentration of 5 or 10 μM for 24 h.” left out

APP C-terminal fragments = assay: Western blot of APP C-terminal fragments in total homogenates; details: PS-DKO MEFs total homogenates; BI
Method: Purification of ER, MAM, and mitochondria was performed and analyzed as described (4).
Purification of ER, MAM, and mitochondria was performed and analyzed as described Area-Gomez et al., 2009, the contents of which is hereby incorporated by reference in its entirety.
Purification of ER, MAM, and mitochondria was performed and analyzed as described (Area-Gomez et al, 2009). For C99 detection, samples were run in 4-12% Bis-Tris gels (Criterion XT Precast Midi Gels, BioRad) in XT MES buffer.

PS-DKO cells [1] = assay: Staining of lipid droplets with LipidTox Green; details: BI 100 nM, desipramine 10 μM, GW4869 5 μM, 12-16 h, Gleevec 10 μM
Method: (§2) Quantification of total cholesterol and cholesteryl esters was performed using the Cholesterol/Cholesteryl Ester Quantitation kit from Calbiochem (428901). Staining of lipid droplets Staining of lipid droplets was performed using HCS LipidTox™ Deep Green neutral lipid stain (Invitrogen H34475) according to the manufacturer's instructions. Lipid droplet staining was quantified using ImageJ. The different values represent the product of the intensity and the area covered by the fluorescent signal above background in every cell examined.
(§3) Staining of lipid droplets was performed using HCS LipidTox™ Deep Green neutral lipid stain (Invitrogen H34475) according to the manufacturer's instructions. Lipid droplet staining was quantified using ImageJ. The different values represent the product of the intensity and the area covered by the fluorescent signal above background in every cell examined.

[2] = tested on: cortical neurons and astrocytes from PS1-KI M146V mice; assay: Staining of lipid droplets with LipidTox Green; details: 100 nM BI
Method: as §2, §3

PS-DKO cells [3] = assay: Analysis of ER-mitochondrial apposition (colocalization of ER and mitochondrial markers); details: 100 nM BI, 12-16 h
Method: Interactions between mitochondria and ER were performed as described (5).
Cells under were co-transfected with GFP-Sec61-β (Addgene plasmid #15108) and DsRed-Mito (Clontech, #632421) at a 1:1 ratio, using Lipofectamine 2000 (Invitrogen, #11668-027) in serum-free DMEM. Twelve hours post-transfection, cells were analyzed as described (8).
Cells under were co-transfected with GFP-Sec61-β (Addgene plasmid #15108) and DsRed2-Mito (Clontech, #632421) at a 1:1 ratio, using Lipofectamine 2000 (Invitrogen, #11668-027) in serum-free DMEM. Twelve hours post-transfection, cells were analyzed as described (Guardia-Laguarta et al., 2014).
Cells under were co-transfected with GFP-Sec61-β (Addgene plasmid #15108) and DsRed2-Mito (Clontech, #632421) at a 1:1 ratio, using Lipofectamine 2000 (Invitrogen, #11668-027) in serum-free DMEM. Twelve hours post-transfection, cells were analyzed as described (Guardia-Laguarta et al, 2014).

| SMILES | mitochondrial respiration (OCR) (APP-DKO cells) | accumulation of APP C-terminal fragments (APP C-terminal fragments) | number of lipid droplets (LDs) (PS-DKO cells [1]) | number of lipid droplets (LDs) [2] | degree of ER-mitochondrial co-localization (apposition) (PS-DKO cells [3]) |
| --- | --- | --- | --- | --- | --- |
| C[C@H](NC(=O)Cc1cc(F)cc(F)c1)C(=O)N[C@H](C(=O)OC(C)(C)C)c1ccccc1 [DAPT] | accentuated | – | – | – | – |
| C[C@@H](NC(=O)c1cc(C(=O)N[C@@H](Cc2ccccc2)[C@H](O)CNC2CC2)cc(N(C)S(C)(=O)=O)c1)c1ccccc1 [BI, β-secretase inhibitor IV] | – | eliminates the accumulation of APP C-terminal fragments | reduced the number of LDs | reduced the number of LDs | reduced the degree of ER-mitochondrial co-localization significantly; also recorded: rescued the upregulation of ER-mitochondria apposition |
